Experimental findings from ChEMBL document CHEMBL1201862, “PubChem BioAssay data set” (2004) are described below.

Common to all, as to assay: NCI-60 cell line screen, 48 h
In assay [1] the test system is SF-295.
Assay [2] has as its system HT-29.
In assay [3] the test system is CAKI-1.
Assay [4] relates to OVCAR-8.
The subject of assay [5] is U-251.
The test system of assay [6] is UO-31.
In assay [7] the test system is Malme-3M.
The subject of assay [8] is NCI-H226.
For assay [9], the system named is SK-OV-3.
Assay [10] concerns HCT-116.
The subject of assay [11] is HCT-15.
Assay [12] concerns SW-620.
In assay [13] the test system is LXFL 529.
Assay [14] deals with OVCAR-3.
The subject of assay [15] is OVCAR-5.
For assay [16], the system named is MOLT-4.
Assay [17] concerns RPMI-8226.
Assay [18] has as its system NCI/ADR-RES.
The subject of assay [19] is MDA-MB-231.
Assay [20] relates to HL-60.

SMILES strings stand for the structures.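 The compound was tested at five concentrations on cells cultured in 96-well plates, with a 48-hour exposure period. Here, GI50 denotes the concentration required for 50% inhibition of growth.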 Calls of active or inactive are those of the source. Rule as the data show it: active = GI50 up to about 1.1 µM and inactive = higher.

In the case of `N#CC1(Cc2ccccc2[N+](=O)[O-])c2ccccc2C2C(N1C(=O)c1ccccc1)C2(Cl)Cl` (stereo not given), the GI50 in assay [1], in [2], in assay [3], in [4], in assay [5] and in assay [6] was > 100 µM (inactive) in each case. Further, the GI50 was > 100 µM (inactive) in assay [7]; > 100 µM (inactive) in assay [8]; > 100 µM (inactive) in assay [9]; > 100 µM (inactive) in assay [10]; greater than 100 µM in assay [11]; > 100 µM (inactive) in assay [12]. Also, the GI50 in assay [13], in assay [14], in assay [15] and in assay [16] was > 100 µM (inactive) throughout.
Consider `CC(=O)OCC1OC(OC2C(COC(C)=O)OC(Sc3ccccc3C)C(OC(C)=O)C2OC(C)=O)C(OC(C)=O)C(OC(C)=O)C1OC(C)=O` (stereo not given), for which the GI50 in assay [1], in assay [2], in assay [3], in assay [5], in [6] and in assay [7] was > 100 µM (inactive) throughout. The GI50 was > 100 µM (inactive) in [8]; > 100 µM (inactive) in assay [9]; > 100 µM (inactive) in assay [10]; greater than 100 µM in assay [11]; > 100 µM (inactive) in assay [12]; > 100 µM (inactive) in [17]. Moreover, the GI50 in assay [13], in assay [15] and in assay [16] was > 100 µM (inactive) throughout.
Take `C[N+](C)(CCNC(=O)c1cccc2cc3ccccc3nc12)Cc1ccc([N+](=O)[O-])cc1`: the GI50 in assay [18], in assay [1], in assay [2], in assay [3], in assay [4] and in [5] was > 100 µM (inactive) each time. The GI50 in assay [6] was > 100 µM (inactive); in [19], > 100 µM (inactive); in [7] it was 49.5 µM (inactive); in assay [8] it was > 100 µM (inactive); in [9] it was > 100 µM (inactive); in assay [10], > 100 µM (inactive). Besides, the GI50 in assay [11] is greater than 100 µM; in assay [12], > 100 µM (inactive); in assay [17], > 100 µM (inactive); in assay [20] it was > 100 µM (inactive); in assay [14], > 100 µM (inactive); in assay [15], > 100 µM (inactive). Also, in assay [16], the GI50 was > 100 µM (inactive).
For `COc1ccc(/C=C(/C(=O)O)c2cc(OC)c(OC)c(OC)c2)cc1`, the GI50 in assay [2] was 42.1 µM (inactive); in assay [3], 44.9 µM (inactive); in assay [4], 63.5 µM (inactive); in assay [5], 35.2 µM (inactive); in assay [6] it was 39.5 µM (inactive); in assay [7] it was 30.1 µM (inactive). Further, the GI50 in assay [8] is 44.8 µM (inactive); in [9], > 100 µM (inactive); in [10], 53.3 µM (inactive); in [12], 61 µM (inactive); in assay [17], 33.8 µM (inactive); in assay [13], 69.2 µM (inactive). Also, the GI50 in [14] was 23.7 µM (inactive); in assay [15] it was > 100 µM (inactive); in [16] it was 45.4 µM (inactive).
